Test results taken from publication PMC5379069, “A Pseudomonas T6SS effector recruits PQS-containing outer membrane vesicles for iron acquisition” (Nature Communications, 2017).

Assays:
TseF (PA2374) [1] = biological target: T1, TseF (PA2374) (Pseudomonas aeruginosa, UniProt Q9I1A5); assay: ITC; also fat western blot; assay type: binding
TseF (PA2374) [2] = biological target: T1, TseF (PA2374); assay: ITC; also immobilized-PQS pull-down and fat western blot; Kd […] with Fe3+; assay type: binding

T1 sequence (Q9I1A5 entry or part of it): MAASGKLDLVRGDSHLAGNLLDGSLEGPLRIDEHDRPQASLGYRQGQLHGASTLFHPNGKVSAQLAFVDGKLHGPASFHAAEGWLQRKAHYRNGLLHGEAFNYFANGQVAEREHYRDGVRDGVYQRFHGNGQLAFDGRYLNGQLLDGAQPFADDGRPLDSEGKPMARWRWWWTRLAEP

SMILES | Kd (TseF (PA2374) [1]) [µM] | Kd (TseF (PA2374) [2]) [µM]
CCCCCCCc1cc(O)c2ccccc2n1 [HHQ, 4-hydroxy-2-heptylquinoline] | 25.7 | 
CCCCCCCc1[nH]c2ccccc2c(=O)c1O [PQS, 2-heptyl-3-hydroxy-4-quinolone] |  | 0.33
